Test results as given in ChEMBL document CHEMBL3400096, “6,7-Dihydrobenzo[f]benzo[4,5]imidazo[1,2-d][1,4]oxazepine derivatives as selective inhibitors of PI3Kα” (Bioorg Med Chem, 2015).
pIC50: −log10 of the molar value.

Experiments:
[1] = molecular target: T1, Phosphatidylinositol 4,5-bisphosphate 3-kinase catalytic subunit delta isoform (Homo sapiens, UniProt O00329); assay: Inhibition of recombinant PI3Kdelta (unknown origin) using […] as substrate after 3 hrs incubation by competitive fluorescence polarization kinase activity assay
T1 sequence (O00329 whole entry): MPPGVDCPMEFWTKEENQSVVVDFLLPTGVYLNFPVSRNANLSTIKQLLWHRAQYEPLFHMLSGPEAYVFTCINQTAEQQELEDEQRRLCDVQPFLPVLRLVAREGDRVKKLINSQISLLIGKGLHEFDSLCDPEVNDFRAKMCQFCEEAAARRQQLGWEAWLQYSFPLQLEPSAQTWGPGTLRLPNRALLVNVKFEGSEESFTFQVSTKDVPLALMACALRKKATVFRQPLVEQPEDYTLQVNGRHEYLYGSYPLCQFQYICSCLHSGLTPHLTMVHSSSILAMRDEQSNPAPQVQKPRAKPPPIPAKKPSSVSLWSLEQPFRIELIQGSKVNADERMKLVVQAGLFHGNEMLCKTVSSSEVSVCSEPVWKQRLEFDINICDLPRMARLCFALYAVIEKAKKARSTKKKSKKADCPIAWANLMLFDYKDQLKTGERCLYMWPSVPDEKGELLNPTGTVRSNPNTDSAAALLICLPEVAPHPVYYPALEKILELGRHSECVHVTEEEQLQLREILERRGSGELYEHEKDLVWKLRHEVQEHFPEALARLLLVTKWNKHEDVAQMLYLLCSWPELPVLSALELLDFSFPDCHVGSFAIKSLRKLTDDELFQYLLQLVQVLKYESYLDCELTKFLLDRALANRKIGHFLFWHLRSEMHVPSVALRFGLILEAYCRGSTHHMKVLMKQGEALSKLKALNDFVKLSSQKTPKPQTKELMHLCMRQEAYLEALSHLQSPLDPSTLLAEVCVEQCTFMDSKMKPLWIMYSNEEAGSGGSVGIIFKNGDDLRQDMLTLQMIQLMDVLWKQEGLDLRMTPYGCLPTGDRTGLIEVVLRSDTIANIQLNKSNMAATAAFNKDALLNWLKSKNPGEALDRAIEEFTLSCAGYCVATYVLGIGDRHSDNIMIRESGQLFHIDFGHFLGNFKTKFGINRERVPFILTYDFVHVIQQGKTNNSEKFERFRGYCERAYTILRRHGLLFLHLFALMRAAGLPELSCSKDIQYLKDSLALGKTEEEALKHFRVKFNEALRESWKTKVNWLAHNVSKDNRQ

[2] = Antiproliferative activity against human HCT116 cells assessed as inhibition of absorbance after 72 hrs by MTT assay; type: functional, cell-based; details: HCT-116, 72 h
[3] = molecular target: Phosphatidylinositol 4,5-bisphosphate 3-kinase catalytic subunit beta isoform (Homo sapiens, UniProt P42338); assay: Inhibition of recombinant PI3Kbeta (unknown origin) […] after 3 hrs incubation by competitive fluorescence polarization kinase activity assay
Sequence of Phosphatidylinositol 4,5-bisphosphate 3-kinase catalytic subunit beta isoform (P42338 whole entry, canonical isoform): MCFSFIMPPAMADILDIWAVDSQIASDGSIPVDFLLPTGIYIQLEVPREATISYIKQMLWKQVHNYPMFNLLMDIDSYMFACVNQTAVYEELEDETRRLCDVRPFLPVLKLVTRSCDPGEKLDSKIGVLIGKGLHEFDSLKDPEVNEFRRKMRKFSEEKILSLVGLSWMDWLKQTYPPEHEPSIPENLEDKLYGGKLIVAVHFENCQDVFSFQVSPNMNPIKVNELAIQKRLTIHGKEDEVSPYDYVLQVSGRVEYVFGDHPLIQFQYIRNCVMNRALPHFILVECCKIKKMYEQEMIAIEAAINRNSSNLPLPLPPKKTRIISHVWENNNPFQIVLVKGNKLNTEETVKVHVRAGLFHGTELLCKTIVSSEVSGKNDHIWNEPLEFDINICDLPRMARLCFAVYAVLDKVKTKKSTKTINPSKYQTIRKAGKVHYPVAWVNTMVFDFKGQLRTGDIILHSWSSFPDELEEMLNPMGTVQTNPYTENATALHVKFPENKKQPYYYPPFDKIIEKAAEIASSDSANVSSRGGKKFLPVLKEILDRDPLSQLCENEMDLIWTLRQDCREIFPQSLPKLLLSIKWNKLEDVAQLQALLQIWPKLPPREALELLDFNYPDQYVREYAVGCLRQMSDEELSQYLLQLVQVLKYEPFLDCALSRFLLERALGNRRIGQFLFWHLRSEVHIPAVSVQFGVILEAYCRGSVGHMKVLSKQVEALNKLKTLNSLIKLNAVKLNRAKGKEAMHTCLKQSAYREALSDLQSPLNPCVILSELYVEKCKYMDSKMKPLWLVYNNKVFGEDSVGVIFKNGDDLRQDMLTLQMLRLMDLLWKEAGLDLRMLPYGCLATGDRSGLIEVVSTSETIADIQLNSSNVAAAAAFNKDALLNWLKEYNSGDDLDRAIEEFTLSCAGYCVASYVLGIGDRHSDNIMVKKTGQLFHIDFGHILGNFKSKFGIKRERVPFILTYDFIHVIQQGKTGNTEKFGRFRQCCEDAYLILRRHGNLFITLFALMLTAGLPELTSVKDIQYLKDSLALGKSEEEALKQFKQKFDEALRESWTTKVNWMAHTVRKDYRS

[4] = molecular target: Phosphatidylinositol 4,5-bisphosphate 3-kinase catalytic subunit gamma isoform (Homo sapiens, UniProt P48736); assay: Inhibition of recombinant PI3Kgamma (unknown origin) using […] as substrate after 3 hrs incubation by competitive fluorescence polarization kinase activity assay
Sequence of Phosphatidylinositol 4,5-bisphosphate 3-kinase catalytic subunit gamma isoform (P48736 whole entry, canonical isoform): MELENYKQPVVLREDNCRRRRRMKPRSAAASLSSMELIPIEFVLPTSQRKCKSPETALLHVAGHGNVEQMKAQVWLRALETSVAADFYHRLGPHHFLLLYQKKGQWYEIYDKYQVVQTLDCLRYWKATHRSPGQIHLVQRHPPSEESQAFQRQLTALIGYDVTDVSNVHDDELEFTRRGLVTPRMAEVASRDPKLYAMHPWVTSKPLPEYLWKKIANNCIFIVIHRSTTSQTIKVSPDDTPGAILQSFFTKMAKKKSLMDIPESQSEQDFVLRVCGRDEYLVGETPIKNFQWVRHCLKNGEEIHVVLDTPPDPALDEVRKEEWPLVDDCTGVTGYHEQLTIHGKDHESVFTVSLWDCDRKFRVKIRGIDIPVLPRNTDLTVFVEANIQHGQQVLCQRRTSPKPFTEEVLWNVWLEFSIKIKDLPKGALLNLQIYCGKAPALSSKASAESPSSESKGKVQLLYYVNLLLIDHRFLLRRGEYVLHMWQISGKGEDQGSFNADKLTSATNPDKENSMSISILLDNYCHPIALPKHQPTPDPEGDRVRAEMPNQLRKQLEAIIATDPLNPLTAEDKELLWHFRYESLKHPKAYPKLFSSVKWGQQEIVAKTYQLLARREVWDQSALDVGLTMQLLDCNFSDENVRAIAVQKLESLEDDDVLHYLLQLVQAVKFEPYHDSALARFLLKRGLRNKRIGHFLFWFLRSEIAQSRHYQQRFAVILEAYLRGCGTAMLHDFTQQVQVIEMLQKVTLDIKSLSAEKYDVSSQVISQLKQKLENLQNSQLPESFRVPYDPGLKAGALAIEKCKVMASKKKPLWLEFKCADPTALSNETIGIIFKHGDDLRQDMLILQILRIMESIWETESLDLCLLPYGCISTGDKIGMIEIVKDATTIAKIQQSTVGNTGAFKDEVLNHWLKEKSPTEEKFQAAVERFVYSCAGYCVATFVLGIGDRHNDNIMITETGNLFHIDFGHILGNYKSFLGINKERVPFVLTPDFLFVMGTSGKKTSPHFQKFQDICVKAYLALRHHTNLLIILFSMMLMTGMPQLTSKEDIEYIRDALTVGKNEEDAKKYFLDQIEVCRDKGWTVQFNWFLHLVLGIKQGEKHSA

A549 = assay: Antiproliferative activity against human A549 cells assessed as inhibition of absorbance after 72 hrs by MTT assay; type: functional, cell-based; details: A549, 72 h
[5] = molecular target: Phosphatidylinositol 4,5-bisphosphate 3-kinase catalytic subunit alpha isoform (Homo sapiens, UniProt P42336); assay: Inhibition of recombinant PI3Kalpha (unknown origin) using […] as substrate after 3 hrs incubation by competitive fluorescence polarization kinase activity assay
Sequence of Phosphatidylinositol 4,5-bisphosphate 3-kinase catalytic subunit alpha isoform (P42336 whole entry, canonical isoform): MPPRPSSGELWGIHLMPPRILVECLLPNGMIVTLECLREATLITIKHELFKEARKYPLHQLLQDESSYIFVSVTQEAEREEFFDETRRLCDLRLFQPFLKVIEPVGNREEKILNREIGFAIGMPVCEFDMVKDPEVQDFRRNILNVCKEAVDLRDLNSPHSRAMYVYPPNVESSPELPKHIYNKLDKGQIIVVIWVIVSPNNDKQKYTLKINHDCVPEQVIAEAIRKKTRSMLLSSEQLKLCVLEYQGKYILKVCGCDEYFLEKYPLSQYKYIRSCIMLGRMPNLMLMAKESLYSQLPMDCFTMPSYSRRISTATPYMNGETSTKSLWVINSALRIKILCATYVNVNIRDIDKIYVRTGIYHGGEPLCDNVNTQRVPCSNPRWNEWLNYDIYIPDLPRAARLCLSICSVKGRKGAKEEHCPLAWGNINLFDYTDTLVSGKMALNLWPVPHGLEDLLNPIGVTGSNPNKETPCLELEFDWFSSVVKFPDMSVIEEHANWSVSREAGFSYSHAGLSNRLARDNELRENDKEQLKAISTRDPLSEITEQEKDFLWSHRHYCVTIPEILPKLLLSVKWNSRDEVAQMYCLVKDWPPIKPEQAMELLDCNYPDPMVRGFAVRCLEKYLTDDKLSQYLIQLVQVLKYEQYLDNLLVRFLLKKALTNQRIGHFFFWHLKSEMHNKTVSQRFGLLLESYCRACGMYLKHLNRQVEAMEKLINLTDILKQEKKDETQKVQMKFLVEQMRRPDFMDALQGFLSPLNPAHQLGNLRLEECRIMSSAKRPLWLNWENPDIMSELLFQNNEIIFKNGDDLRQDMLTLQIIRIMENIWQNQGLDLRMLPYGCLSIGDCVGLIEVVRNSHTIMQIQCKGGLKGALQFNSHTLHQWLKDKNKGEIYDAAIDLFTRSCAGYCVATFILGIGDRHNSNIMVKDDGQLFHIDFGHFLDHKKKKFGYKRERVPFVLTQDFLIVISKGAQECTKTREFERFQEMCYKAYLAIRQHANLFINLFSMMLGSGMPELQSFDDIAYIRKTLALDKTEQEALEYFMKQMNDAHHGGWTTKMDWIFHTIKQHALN

[6] = Antiproliferative activity against human HuH7 cells assessed as inhibition of absorbance after 72 hrs by MTT assay; type: functional, cell-based; details: Huh-7, 72 h
[7] = Antiproliferative activity against human HL60 cells assessed as inhibition of absorbance after 72 hrs by MTT assay; type: functional, cell-based; details: HL-60, 72 h
HCT-116 [8] = assay: Induction of apoptosis in human HCT116 cells assessed as viable cells at 0.5 uM after 24 hrs using annexin V/propidium iodide staining based flow cytometry (reference value: 93.3%); type: functional; details: HCT-116, 24 h, read-out: Activity
HCT-116 [9] = assay: Induction of apoptosis in human HCT116 cells assessed as necrotic cells at 2 uM after 24 hrs using annexin V/propidium iodide staining based flow cytometry (reference value: 4.09%); type: functional
HCT-116 [10] = assay: Induction of apoptosis in human HCT116 cells assessed as necrotic cells at 0.5 uM after 24 hrs using annexin V/propidium iodide staining based flow cytometry (reference value: 4.09%); type: functional
HCT-116 [11] = assay: Induction of apoptosis in human HCT116 cells assessed as late apoptotic cells at 0.5 uM after 24 hrs using annexin V/propidium iodide staining based flow cytometry (reference value: 0.710%); type: functional
HCT-116 [12] = assay: Induction of apoptosis in human HCT116 cells assessed as early apoptotic cells at 1 uM after 24 hrs using annexin V/propidium iodide staining based flow cytometry (reference value: 1.93%); type: functional
HCT-116 [13] = assay: Induction of apoptosis in human HCT116 cells assessed as viable cells at 1 uM after 24 hrs using annexin V/propidium iodide staining based flow cytometry (reference value: 93.3%); type: functional; details: HCT-116, 24 h, read-out: Activity
HCT-116 [14] = assay: Induction of apoptosis in human HCT116 cells assessed as early apoptotic cells at 2 uM after 24 hrs using annexin V/propidium iodide staining based flow cytometry (reference value: 1.93%); type: functional
HCT-116 [15] = assay: Induction of apoptosis in human HCT116 cells assessed as early apoptotic cells at 0.5 uM after 24 hrs using annexin V/propidium iodide staining based flow cytometry (reference value: 1.93%); type: functional
HCT-116 [16] = assay: Induction of apoptosis in human HCT116 cells assessed as late apoptotic cells at 2 uM after 24 hrs using annexin V/propidium iodide staining based flow cytometry (reference value: 0.710%); type: functional
HCT-116 [17] = assay: Induction of apoptosis in human HCT116 cells assessed as necrotic cells at 1 uM after 24 hrs using annexin V/propidium iodide staining based flow cytometry (reference value: 4.09%); type: functional
HCT-116 [18] = assay: Induction of apoptosis in human HCT116 cells after 24 hrs using annexin V/propidium iodide staining based flow cytometry; type: functional, cell-based
HCT-116 [19] = assay: Induction of apoptosis in human HCT116 cells assessed as early apoptotic cells after 24 hrs using annexin V/propidium iodide staining based flow cytometry; type: functional, cell-based
HCT-116 [20] = assay: Induction of apoptosis in human HCT116 cells assessed as late apoptotic cells at 1 uM after 24 hrs using annexin V/propidium iodide staining based flow cytometry (reference value: 0.710%); type: functional
HCT-116 [21] = assay: Induction of apoptosis in human HCT116 cells assessed as viable cells at 2 uM after 24 hrs using annexin V/propidium iodide staining based flow cytometry (reference value: 93.3%); type: functional; details: HCT-116, 24 h, read-out: Activity

Row | SMILES | pIC50 [1] | pIC50 [2] | pIC50 [3] | pIC50 [4] | pIC50 (A549) | pIC50 [5] | pIC50 [6] | pIC50 [7] | other results
1 | Cc1ccc2c(c1)-c1nc3cc(Br)ccc3n1CCO2 | 4.32 | 5.13 | 5.99 | 4.36 | 5.10 | 6.18 | 5.31 | 5.11 | –
2 | Cc1ccc2c(c1)-c1nc3cc([N+](=O)[O-])ccc3n1CCO2 | 4.46 | 7.10 | 6.74 | 5.02 | 6.96 | 7.80 | 6.92 | 7.00 | viability at 0.5 µM (HCT-116 [8]): 79.5%; Activity (HCT-116 [9]): 0.974%; Activity (HCT-116 [10]): 0.523%; Activity (HCT-116 [11]): 4.91%; Activity (HCT-116 [12]): 17.8%; viability at 1 µM (HCT-116 [13]): 76.8%; Activity (HCT-116 [14]): 27.3%; Activity (HCT-116 [15]): 15.1%; Activity (HCT-116 [16]): 5.98%; Activity (HCT-116 [17]): 1.26%; Activity (HCT-116 [18]): Dose-dependent effect; Activity (HCT-116 [19]): Dose-dependent effect; Activity (HCT-116 [20]): 4.13%; viability at 2 µM (HCT-116 [21]): 65.7%
3 | Brc1ccc2c(c1)-c1nc3ccccc3n1CCO2 | – | 4.01 | – | – | 3.89 | – | 3.88 | 3.99 | –
4 | Fc1ccc2c(c1)nc1n2CCOc2ccc(Cl)cc2-1 | 4.37 | 5.74 | 6.31 | 4.66 | 5.77 | 6.55 | 5.87 | 5.72 | –
5 | Clc1ccc2c(c1)-c1nc3ccccc3n1CCO2 | – | 4.06 | – | – | 3.97 | – | 4.03 | 4.04 | –
6 | FC(F)(F)c1ccc2c(c1)nc1n2CCOc2ccc(Cl)cc2-1 | – | 4.46 | – | – | 4.42 | – | 4.37 | 4.42 | –
7 | c1ccc2c(c1)OCCn1c-2nc2ccccc21 | – | 3.99 | – | – | 3.87 | – | 3.91 | 3.97 | –
8 | O=[N+]([O-])c1ccc2c(c1)nc1n2CCOc2ccccc2-1 | – | 4.04 | – | – | 3.91 | – | 3.98 | 4.02 | –
9 | Clc1ccc2c(c1)nc1n2CCOc2ccccc2-1 | – | 4.15 | – | – | 4.11 | – | 4.10 | 4.13 | –
10 | Fc1ccc2c(c1)nc1n2CCOc2ccc(Br)cc2-1 | < 4.30 | 6.13 | 6.33 | 4.55 | 6.15 | 6.74 | 6.13 | 6.11 | –
11 | Brc1ccc2c(c1)-c1nc3cc(Br)ccc3n1CCO2 | 4.40 | 6.33 | 6.55 | 4.71 | 6.32 | 7.04 | 6.29 | 6.33 | –
12 | Cc1ccc2c(c1)-c1nc3cc(Cl)ccc3n1CCO2 | – | 4.33 | – | – | 4.25 | – | 4.19 | 4.29 | –
13 | Cc1ccc2c(c1)-c1nc3ccccc3n1CCO2 | – | 3.95 | – | – | 3.83 | – | 3.84 | 3.92 | –
14 | Cc1ccc2c(c1)nc1n2CCOc2ccc(Br)cc2-1 | – | 4.10 | – | – | 4.03 | – | 4.01 | 4.05 | –
15 | Cc1ccc2c(c1)-c1nc3cc(F)ccc3n1CCO2 | < 4.30 | 5.61 | 6.04 | 4.46 | 5.55 | 6.32 | 5.41 | 5.34 | –
16 | O=c1cc(N2CCOCC2)oc2c(-c3ccccc3)cccc12 [LY-294002] | 5.87 | 4.29 | – | – | 4.08 | – | 4.17 | – | –
17 | FC(F)(F)c1ccc2c(c1)nc1n2CCOc2ccccc2-1 | – | 4.86 | – | – | 4.94 | – | 4.73 | 5.00 | –
18 | Fc1ccc2c(c1)nc1n2CCOc2ccccc2-1 | – | 4.12 | – | – | 4.05 | – | 4.04 | 4.08 | –
19 | Clc1ccc2c(c1)nc1n2CCOc2ccc(Br)cc2-1 | < 4.30 | 6.92 | 6.73 | 4.93 | 6.77 | 7.51 | 6.74 | 6.82 | –
20 | Clc1ccc2c(c1)-c1nc3cc(Cl)ccc3n1CCO2 | < 4.30 | 6.28 | 6.44 | 4.61 | 6.25 | 6.90 | 6.35 | 6.28 | –
21 | Clc1ccc2c(c1)-c1nc3cc(Br)ccc3n1CCO2 | – | 4.19 | – | – | 4.13 | – | 4.14 | 4.18 | –
22 | Cc1ccc2c(c1)nc1n2CCOc2ccccc2-1 | – | 4.13 | – | – | 4.08 | – | 4.08 | 4.12 | –
23 | Brc1ccc2c(c1)nc1n2CCOc2ccccc2-1 | – | 4.36 | – | – | 4.31 | – | 4.23 | 4.35 | –
24 | FC(F)(F)c1ccc2c(c1)nc1n2CCOc2ccc(Br)cc2-1 | – | 4.22 | – | – | 4.16 | – | 4.16 | 4.18 | –
25 | O=[N+]([O-])c1ccc2c(c1)nc1n2CCOc2ccc(Cl)cc2-1 | – | 4.55 | – | – | 4.55 | – | 4.70 | 4.48 | –
26 | Cc1ccc2c(c1)-c1nc3cc(C(F)(F)F)ccc3n1CCO2 | < 4.30 | 5.35 | 5.92 | 4.38 | 5.31 | 6.16 | 5.19 | 5.31 | –
27 | Cc1ccc2c(c1)-c1nc3cc(C)ccc3n1CCO2 | < 4.30 | 6.23 | 6.40 | 4.77 | 6.21 | 6.93 | 6.17 | 6.24 | –
28 | O=[N+]([O-])c1ccc2c(c1)nc1n2CCOc2ccc(Br)cc2-1 | – | 4.72 | – | – | 4.66 | – | 4.61 | 4.76 | –
29 | Cc1ccc2c(c1)nc1n2CCOc2ccc(Cl)cc2-1 | – | 4.24 | – | – | 4.21 | – | 4.20 | 4.24 | –
